Test results from patent US7192924B2, “Corticotropin releasing factor 2 receptor agonists” (priority 2002, dated 2007).
Peptide text beside a SMILES is read from it.

Experiments:
CRF1R = molecular target: T1, CRF1R (Homo sapiens, UniProt P34998); experiment: CRF1R agonist activity (EC50, Emax), called comparative CRF binding; assay type: cell-based; conditions: read-out: CRF1R EC50
T1 sequence (P34998 24-415): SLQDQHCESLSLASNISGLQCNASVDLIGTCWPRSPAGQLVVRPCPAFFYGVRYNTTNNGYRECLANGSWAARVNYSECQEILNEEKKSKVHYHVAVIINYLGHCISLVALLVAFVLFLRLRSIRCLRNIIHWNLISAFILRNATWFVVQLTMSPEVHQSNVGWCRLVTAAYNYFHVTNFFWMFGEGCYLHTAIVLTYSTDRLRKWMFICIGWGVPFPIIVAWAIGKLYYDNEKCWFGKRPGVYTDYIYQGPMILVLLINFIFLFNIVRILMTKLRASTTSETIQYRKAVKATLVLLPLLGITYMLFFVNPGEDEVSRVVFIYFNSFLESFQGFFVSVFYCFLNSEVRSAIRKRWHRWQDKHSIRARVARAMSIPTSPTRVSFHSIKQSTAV
Outline: (§1)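 Cells expressing only CRF1R or only CRF2R (or recombinant receptor) are contacted with peptide or vehicle control. Receptor activation is read as cAMP induction, measured in cell lysates or via a cAMP-responsive-element reporter gene such as luciferase.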

CRF2R = molecular target: T2, CRF2R (Homo sapiens, UniProt Q13324); experiment: CRF2R agonist activity (EC50, Emax), called comparative CRF binding; assay type: cell-based; conditions: read-out: CRF2R EC50
T2 sequence (Q13324 1-411): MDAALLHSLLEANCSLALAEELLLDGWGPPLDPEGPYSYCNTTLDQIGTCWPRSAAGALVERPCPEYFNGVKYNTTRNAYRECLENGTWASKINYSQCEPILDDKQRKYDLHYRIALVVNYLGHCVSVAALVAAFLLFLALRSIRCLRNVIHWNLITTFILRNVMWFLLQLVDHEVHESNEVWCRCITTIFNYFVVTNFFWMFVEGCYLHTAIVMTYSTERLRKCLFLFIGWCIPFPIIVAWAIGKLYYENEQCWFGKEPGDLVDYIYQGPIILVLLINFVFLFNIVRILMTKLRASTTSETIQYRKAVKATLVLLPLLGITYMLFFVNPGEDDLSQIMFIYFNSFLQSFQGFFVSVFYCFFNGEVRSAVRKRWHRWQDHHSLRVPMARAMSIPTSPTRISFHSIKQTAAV
Outline: as §1

Row | SMILES | EC50 (CRF1R) [nM] | EC50 (CRF2R) [nM]
1 | CC[C@H](C)[C@H](NC(=O)[C@H](CCC(=O)O)NC(=O)[C@H](C)NC(=O)[C@H](CC(N)=O)NC(=O)[C@H](CCC(N)=O)NC(=O)[C@H](CCC(=O)O)NC(=O)[C@H](C)NC(=O)[C@H](CCCNC(=N)N)NC(=O)[C@H](CCC(=O)O)NC(=O)[C@H](CCCNC(=N)N)NC(=O)[C@H](CCC(N)=O)NC(=O)[C@H](CO)NC(=O)[C@H](CCC(N)=O)NC(=O)[C@@H](NC(=O)[C@H](CCCCN)NC(=O)[C@H](CCC(=O)O)NC(=O)[C@H](CC(C)C)NC(=O)[C@H](CCC(=O)O)NC(=O)[C@H](CC(C)C)NC(=O)[C@H](CC(C)C)NC(=O)[C@@H](NC(=O)[C@H](CCCNC(=N)N)NC(=O)[C@H](CC(C)C)NC(=O)[C@H](CC(C)C)NC(=O)[C@H](CC(C)C)NC(=O)[C@H](CC(C)C)NC(=O)[C@@H]1CCCN1C(=O)[C@H](CC(C)C)NC(=O)[C@H](CC(=O)O)NC(=O)[C@@H](NC(=O)[C@H](CO)NC(=O)[C@H](CC(C)C)NC(=O)[C@H](CO)NC(=O)[C@@H]1CCCN1C(=O)[C@H](CC(N)=O)NC(=O)[C@@H](N)CC(=O)O)[C@@H](C)CC)[C@@H](C)O)[C@@H](C)O)C(=O)N[C@@H](Cc1ccccc1)C(=O)N[C@@H](C)C(=O)N[C@@H](CCC(=O)O)C(=O)N[C@H](C(N)=O)C(C)C [compound 323] (H-DNPSLSIDLPLLLLRTLLELEKTQSQRERAEQNAEIFAEV-NH2; N-terminus assumed) | ≥ 1000 | 19.6
2 | CC[C@H](C)[C@H](NC(=O)[C@H](CCC(N)=O)NC(=O)[C@H](C)NC(=O)[C@H](CC(N)=O)NC(=O)[C@H](CCC(N)=O)NC(=O)[C@H](CCC(=O)O)NC(=O)[C@H](C)NC(=O)[C@H](CCCNC(=N)N)NC(=O)[C@H](CCC(=O)O)NC(=O)[C@H](CCCNC(=N)N)NC(=O)[C@H](CCC(N)=O)NC(=O)[C@H](CO)NC(=O)[C@H](CCC(N)=O)NC(=O)[C@@H](NC(=O)[C@H](CCCCN)NC(=O)[C@H](CCC(=O)O)NC(=O)[C@H](CC(C)C)NC(=O)[C@H](CCC(=O)O)NC(=O)[C@H](CC(C)C)NC(=O)[C@H](CC(C)C)NC(=O)[C@@H](NC(=O)[C@H](CCCNC(=N)N)NC(=O)[C@H](CC(C)C)NC(=O)[C@H](CC(C)C)NC(=O)[C@H](CC(C)C)NC(=O)[C@H](CC(C)C)NC(=O)[C@@H]1CCCN1C(=O)[C@H](CC(C)C)NC(=O)[C@H](CC(=O)O)NC(=O)[C@@H](NC(=O)[C@H](CO)NC(=O)[C@H](CC(C)C)NC(=O)[C@H](CO)NC(=O)[C@@H]1CCCN1C(=O)[C@H](CC(N)=O)NC(=O)[C@@H](N)CC(=O)O)[C@@H](C)CC)[C@@H](C)O)[C@@H](C)O)C(=O)N[C@@H](Cc1ccccc1)C(=O)N[C@@H](C)C(=O)N[C@@H](CCC(N)=O)C(=O)N[C@H](C(N)=O)C(C)C [compound 327] (H-DNPSLSIDLPLLLLRTLLELEKTQSQRERAEQNAQIFAQV-NH2; N-terminus assumed) | ≥ 1000 | 28.4
3 | CC[C@H](C)[C@H](NC(=O)[C@H](CCCNC(=N)N)NC(=O)[C@H](C)NC(=O)[C@H](CC(N)=O)NC(=O)[C@H](CCC(N)=O)NC(=O)[C@H](CCC(=O)O)NC(=O)[C@H](C)NC(=O)[C@H](CCCNC(=N)N)NC(=O)[C@H](CCC(=O)O)NC(=O)[C@H](CCCNC(=N)N)NC(=O)[C@H](CCC(N)=O)NC(=O)[C@H](CO)NC(=O)[C@H](CCC(N)=O)NC(=O)[C@@H](NC(=O)[C@H](CCCNC(=N)N)NC(=O)[C@H](C)NC(=O)[C@H](CC(C)C)NC(=O)[C@H](CCC(=O)O)NC(=O)[C@H](CC(C)C)NC(=O)[C@H](CC(C)C)NC(=O)[C@@H](NC(=O)[C@H](CCCNC(=N)N)NC(=O)[C@H](CC(C)C)NC(=O)[C@H](CC(C)C)NC(=O)[C@H](Cc1ccccc1)NC(=O)[C@H](CC(C)C)NC(=O)[C@@H]1CCCN1C(=O)[C@H](CC(C)C)NC(=O)[C@H](CC(=O)O)NC(=O)[C@@H](NC(=O)[C@H](CO)NC(=O)[C@H](CC(C)C)NC(=O)[C@H](CO)NC(=O)[C@@H]1CCCN1C(=O)[C@H](CC(N)=O)NC(=O)[C@@H](N)CC(=O)O)[C@@H](C)CC)[C@@H](C)O)[C@@H](C)O)C(=O)N[C@@H](Cc1ccccc1)C(=O)N[C@@H](C)C(=O)N[C@@H](CCCNC(=N)N)C(=O)N[C@H](C(N)=O)C(C)C [compound 329] (H-DNPSLSIDLPLFLLRTLLELARTQSQRERAEQNARIFARV-NH2; N-terminus assumed) | ≥ 1000 | 5.15
4 | CC[C@H](C)[C@H](NC(=O)[C@H](CCCNC(=N)N)NC(=O)[C@H](C)NC(=O)[C@H](CC(N)=O)NC(=O)[C@H](CCC(N)=O)NC(=O)[C@H](CCC(=O)O)NC(=O)[C@H](C)NC(=O)[C@H](CCCNC(=N)N)NC(=O)[C@H](CCC(=O)O)NC(=O)[C@H](CCCNC(=N)N)NC(=O)[C@H](CCC(N)=O)NC(=O)[C@H](CO)NC(=O)[C@H](CCC(N)=O)NC(=O)[C@@H](NC(=O)[C@H](CCCCN)NC(=O)[C@H](CCC(=O)O)NC(=O)[C@H](CC(C)C)NC(=O)[C@H](CCC(=O)O)NC(=O)[C@H](CC(C)C)NC(=O)[C@H](CC(C)C)NC(=O)[C@@H](NC(=O)[C@H](CCCNC(=N)N)NC(=O)[C@H](CC(C)C)NC(=O)[C@H](CC(C)C)NC(=O)[C@H](Cc1ccccc1)NC(=O)[C@H](CC(C)C)NC(=O)[C@@H]1CCCN1C(=O)[C@H](CC(C)C)NC(=O)[C@H](CC(=O)O)NC(=O)[C@@H](NC(=O)[C@H](CO)NC(=O)[C@H](CC(C)C)NC(=O)[C@H](CO)NC(=O)[C@@H]1CCCN1)[C@@H](C)CC)[C@@H](C)O)[C@@H](C)O)C(=O)N[C@@H](Cc1ccccc1)C(=O)N[C@@H](C)C(=O)N[C@@H](CCCNC(=N)N)C(=O)N[C@H](C(N)=O)C(C)C [compound 331] (H-PSLSIDLPLFLLRTLLELEKTQSQRERAEQNARIFARV-NH2; N-terminus assumed) | ≥ 1000 | 9.85
5 | CC[C@H](C)[C@H](NC(=O)[C@H](CCCNC(=N)N)NC(=O)[C@H](C)NC(=O)[C@H](CC(N)=O)NC(=O)[C@H](CCC(N)=O)NC(=O)[C@H](CCC(=O)O)NC(=O)[C@H](C)NC(=O)[C@H](CCCNC(=N)N)NC(=O)[C@H](CCC(=O)O)NC(=O)[C@H](CCCNC(=N)N)NC(=O)[C@H](CCC(N)=O)NC(=O)[C@H](CO)NC(=O)[C@H](CCC(N)=O)NC(=O)[C@@H](NC(=O)[C@H](CCCCN)NC(=O)[C@H](CCC(=O)O)NC(=O)[C@H](CC(C)C)NC(=O)[C@H](CCC(=O)O)NC(=O)[C@H](CC(C)C)NC(=O)[C@H](CC(C)C)NC(=O)[C@@H](NC(=O)[C@H](CCCNC(=N)N)NC(=O)[C@H](CC(C)C)NC(=O)[C@H](CC(C)C)NC(=O)[C@@H](NC(=O)[C@H](CC(C)C)NC(=O)[C@@H]1CCCN1C(=O)[C@H](CC(C)C)NC(=O)[C@H](CC(=O)O)NC(=O)[C@@H](NC(=O)[C@H](CO)NC(=O)[C@H](CC(C)C)NC(=O)[C@H](CO)NC(=O)[C@@H]1CCCN1)[C@@H](C)CC)[C@@H](C)CC)[C@@H](C)O)[C@@H](C)O)C(=O)N[C@@H](Cc1ccccc1)C(=O)N[C@@H](C)C(=O)N[C@@H](CCCNC(=N)N)C(=O)N[C@H](C(N)=O)C(C)C [compound 332] (H-PSLSIDLPLILLRTLLELEKTQSQRERAEQNARIFARV-NH2; N-terminus assumed) | ≥ 1000 | 9.95
6 | CC[C@H](C)[C@H](NC(=O)[C@H](CCCNC(=N)N)NC(=O)[C@H](C)NC(=O)[C@H](CC(N)=O)NC(=O)[C@H](CCC(N)=O)NC(=O)[C@H](CCC(=O)O)NC(=O)[C@H](C)NC(=O)[C@H](CCCNC(=N)N)NC(=O)[C@H](CCC(=O)O)NC(=O)[C@H](CCCNC(=N)N)NC(=O)[C@H](CCC(N)=O)NC(=O)[C@H](CO)NC(=O)[C@H](CCC(N)=O)NC(=O)[C@@H](NC(=O)[C@H](CCCCN)NC(=O)[C@H](CCC(=O)O)NC(=O)[C@H](CC(C)C)NC(=O)[C@H](CCC(=O)O)NC(=O)[C@H](CC(C)C)NC(=O)[C@H](CC(C)C)NC(=O)[C@@H](NC(=O)[C@H](CCCNC(=N)N)NC(=O)[C@H](CC(C)C)NC(=O)[C@H](CC(C)C)NC(=O)[C@H](Cc1ccccc1)NC(=O)[C@H](CC(C)C)NC(=O)[C@@H]1CCCN1C(=O)[C@H](CC(C)C)NC(=O)[C@H](CC(=O)O)NC(=O)[C@@H](NC(=O)[C@H](CO)NC(=O)[C@H](CC(C)C)NC(=O)[C@H](CO)NC(=O)[C@@H]1CCCN1C(=O)[C@H](CC(N)=O)NC(=O)[C@@H](N)CC(=O)O)[C@@H](C)CC)[C@@H](C)O)[C@@H](C)O)C(=O)N[C@@H](Cc1ccccc1)C(=O)N[C@@H](CC(=O)O)C(=O)N[C@@H](CCCNC(=N)N)C(=O)N[C@H](C(N)=O)C(C)C [compound 336] (H-DNPSLSIDLPLFLLRTLLELEKTQSQRERAEQNARIFDRV-NH2; N-terminus assumed) | ≥ 1000 | 17.8
